Measured values: paper PMC6331789, “Phytochemicals from Ruta graveolens Activate TAS2R Bitter Taste Receptors and TRP Channels Involved in Gustation and Nociception” (Molecules, 2015)
Where two headings read alike, the source gives them in different places.

Assays:
Assay type in all cases: cell-based
[1] = target: T1, TRPM5 (Homo sapiens, UniProt Q9NZQ8); test: In vitro membrane potential dye assay (FLIPR) on HEK293T cells stably overexpressing TRPM5; conditions: for TRPM5 screening result: single dose, qualitative
T1 construct: expressed in transfected cells
T1 sequence (Q9NZQ8 1-1165): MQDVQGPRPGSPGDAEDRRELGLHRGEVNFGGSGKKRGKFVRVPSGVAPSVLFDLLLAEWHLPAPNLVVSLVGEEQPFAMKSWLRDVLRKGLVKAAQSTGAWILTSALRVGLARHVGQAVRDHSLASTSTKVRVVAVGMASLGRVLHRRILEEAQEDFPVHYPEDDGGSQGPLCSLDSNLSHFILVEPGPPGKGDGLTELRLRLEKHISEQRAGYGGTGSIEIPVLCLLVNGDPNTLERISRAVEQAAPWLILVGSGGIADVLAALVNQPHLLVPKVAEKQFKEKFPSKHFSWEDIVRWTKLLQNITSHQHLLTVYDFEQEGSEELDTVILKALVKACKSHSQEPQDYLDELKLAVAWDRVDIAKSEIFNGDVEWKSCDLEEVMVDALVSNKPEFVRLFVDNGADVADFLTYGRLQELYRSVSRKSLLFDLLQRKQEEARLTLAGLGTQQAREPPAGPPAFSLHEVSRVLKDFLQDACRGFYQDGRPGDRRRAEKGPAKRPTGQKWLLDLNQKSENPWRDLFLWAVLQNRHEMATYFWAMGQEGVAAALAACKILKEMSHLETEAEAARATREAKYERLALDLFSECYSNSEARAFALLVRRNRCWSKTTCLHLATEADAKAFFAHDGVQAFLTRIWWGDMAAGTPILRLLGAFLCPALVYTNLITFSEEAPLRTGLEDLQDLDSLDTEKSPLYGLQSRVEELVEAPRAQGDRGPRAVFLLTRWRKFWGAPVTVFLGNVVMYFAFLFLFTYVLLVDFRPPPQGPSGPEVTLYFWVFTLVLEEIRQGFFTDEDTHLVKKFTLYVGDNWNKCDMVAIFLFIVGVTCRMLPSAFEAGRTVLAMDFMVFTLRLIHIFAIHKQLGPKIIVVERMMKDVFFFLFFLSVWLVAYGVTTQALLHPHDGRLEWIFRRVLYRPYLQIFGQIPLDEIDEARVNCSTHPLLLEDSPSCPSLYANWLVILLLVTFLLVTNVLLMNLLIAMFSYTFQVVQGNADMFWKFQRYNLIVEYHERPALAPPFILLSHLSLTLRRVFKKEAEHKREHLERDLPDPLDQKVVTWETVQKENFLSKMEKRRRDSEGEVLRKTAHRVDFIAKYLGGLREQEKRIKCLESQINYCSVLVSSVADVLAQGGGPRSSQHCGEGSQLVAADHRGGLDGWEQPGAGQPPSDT
Excerpt: (§1) Pure phytochemicals were submitted to in vitro assays with a platform of twenty cloned receptors of the bitter taste TAS2R family and four receptors of the TRP family related to the perception of taste and somatosensory sensations. All experiments have been repeated three times, each time with four replicates. […] For simplicity, only those bitter taste receptors having reproducible positive assay, namely TASR10, 14 and 49, are reported (Table 1).
(§2) For those compounds showing activity on one or more receptor(s), the concentration/response curves were plotted and the EC50 calculated.
(§3) For the biological tests, several compounds were purchased as references from different suppliers (Sigma Aldrich, ChromaDex, Irvine, CA, USA, and Tocris Bioscience, Bristol, UK) and dissolved in assay buffer (130 mM NaCl, 5 mM KCl, 1 mM MgCl2, 2 mM CaCl2, 5 mM NaHCO3 and 20 mM HEPES, pH 7.4) or in a mixture of assay buffer and DMSO, never exceeding a final DMSO concentration of 0.5% (v/v) to avoid toxic effects and possible artefacts on transfected cells.
(§4) All human TAS2R and G15Gi1 cDNAs were produced as reported in Bassoli et al. cDNAs for human TRPA1-M5-M8-V1-V4 were cloned into a pcDNA6 expression vector (Invitrogen-Thermo Fisher, Waltham, MA, USA).
(§5) All experiments were performed using HEK293T cells (ATCC).
(§6) For TRP platform experiments, cells were cultured in MEM/EBSS medium (ECB2071L EuroClone, Milan, Italy) plus 10% (v/v) fetal bovine serum (FBS) (26400-044 Gibco, Karlsruhe, Germany) and 1% (v/v) Pen/Strep 10K/10K stock (17-602E Lonza, Basel, Switzerland). Stable cell lines were generated overexpressing each TRP channel, and clones were selected with 500 µg/mL of G418 (ant-gn-5 Invivogen, Karlsruhe, Germany). To analyze TRP receptor responses, cells were plated at a concentration of 20,000 cells/well in 384-well plates (GR-4330 Twin Helix srl, Milan, Italy). Cellular responses were measured 24 h after seeding.
(§7) For TRPM5 experiments, cells were loaded 24 h after seeding with a Membrane Potential Dye (R8034 MDC) solution in assay buffer according to the manufacturer’s instructions and incubated at 37 °C for 1 h before acquisition. All experiments were performed using a fluorometric imaging plate reader (FLIPR^TETRA, Molecular Devices equipped with ICCD Camera from Stanford Photonics, INC, (Palo Alto, CA, USA) and kinetics were visualized with Molecular Devices’ Screenworks 3.0 (Sunnyvale, CA, USA).
(§8) For the calculation of concentration-response curves, responses were calculated as the difference between maximal and minimal relative fluorescence unit (RFU) values in a selected time window (11–60 s) and were normalized to the basal well fluorescence (Time Point 1, before compound injection) in order to compensate for differences in cell density (∆F/F0). All of the experiments have been repeated three times, each time with four replicates. All of the results are averages of at least four replicates. Raw data are available in Supplementary Material, Figures S3–S6.

[2] = target: T2, TAS2R10 (Homo sapiens, UniProt Q9NYW0); test: In vitro calcium imaging assay on cloned TAS2R10 in transfected HEK293T cells; conditions: for TAS2R10 screening result: single dose, qualitative
T2 construct: expressed in transfected cells; host or cells: HEK293T
T2 sequence (Q9NYW0 1-307): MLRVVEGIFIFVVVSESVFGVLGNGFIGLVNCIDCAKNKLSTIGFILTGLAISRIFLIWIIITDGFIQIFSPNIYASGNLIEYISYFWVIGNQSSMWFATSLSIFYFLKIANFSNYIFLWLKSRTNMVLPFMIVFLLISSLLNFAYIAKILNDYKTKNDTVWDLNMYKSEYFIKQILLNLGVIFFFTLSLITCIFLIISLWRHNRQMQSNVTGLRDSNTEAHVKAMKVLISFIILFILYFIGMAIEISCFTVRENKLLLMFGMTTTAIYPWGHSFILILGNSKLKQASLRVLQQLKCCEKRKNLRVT
Excerpt: as §1, §2, §3, §4, §5
For the bitter platform experiments, cells were cultured, transfected and analyzed as previously described.
For the bitter platform experiments, data analyses were performed as previously described.
as §8

[3] = target: T3, TRPV1 (Homo sapiens, UniProt Q8NER1); test: In vitro Fluo8-NW calcium assay (FLIPR) on HEK293T cells stably overexpressing TRPV1; conditions: for TRPV1 screening result: single dose, qualitative
T3 construct: expressed in transfected cells
T3 sequence (Q8NER1 whole entry): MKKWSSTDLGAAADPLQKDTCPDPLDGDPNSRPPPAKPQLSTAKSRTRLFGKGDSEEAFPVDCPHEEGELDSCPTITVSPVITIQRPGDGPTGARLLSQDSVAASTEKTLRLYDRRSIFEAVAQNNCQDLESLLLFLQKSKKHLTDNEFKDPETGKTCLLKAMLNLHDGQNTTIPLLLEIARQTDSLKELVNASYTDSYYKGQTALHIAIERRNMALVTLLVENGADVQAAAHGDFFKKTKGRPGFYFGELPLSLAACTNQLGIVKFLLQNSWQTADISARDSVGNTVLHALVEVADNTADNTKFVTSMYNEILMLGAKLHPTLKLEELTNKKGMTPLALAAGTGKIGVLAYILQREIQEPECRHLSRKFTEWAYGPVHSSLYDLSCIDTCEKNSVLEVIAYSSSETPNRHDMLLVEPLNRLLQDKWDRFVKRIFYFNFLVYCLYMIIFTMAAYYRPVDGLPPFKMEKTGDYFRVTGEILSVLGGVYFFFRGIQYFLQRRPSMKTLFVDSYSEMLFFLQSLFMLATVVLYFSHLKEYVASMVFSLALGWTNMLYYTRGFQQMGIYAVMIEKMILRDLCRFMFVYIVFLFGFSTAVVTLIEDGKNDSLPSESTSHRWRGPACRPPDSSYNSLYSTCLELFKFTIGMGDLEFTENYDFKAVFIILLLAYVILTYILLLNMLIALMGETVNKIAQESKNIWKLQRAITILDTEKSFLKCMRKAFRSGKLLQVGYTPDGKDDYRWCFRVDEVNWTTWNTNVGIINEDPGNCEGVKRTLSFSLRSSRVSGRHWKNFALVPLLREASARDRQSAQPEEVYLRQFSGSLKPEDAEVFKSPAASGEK
Excerpt: as §1, §3, §4, §5, §6
For TRPA1-M8-V1-V4 experiments, a solution of Fluo8-NW calcium-sensitive dye (36316 AAT BioQuest, Sunnyvale, CA, USA) was prepared using the assaybuffer and diluting the kit components 1:2 according to the manufacturer’s instructions. Twenty-four hours after seeding, cells were incubated one hour at RT, loaded with 40 µL of Fluo8-NW solution for each well and incubated again for one hour at RT before data acquisition.
as §7, §8

[4] = concentration/response curve, values with ≥ estimated, curve did not saturate, read-out: EC50 TAS2R10

Row | SMILES | TRPM5 screening result [1] | TAS2R10 screening result [2] | TRPV1 screening result [3] | Activity on TRPM5 (in words) [1] | EC50 ([1]; concentration/response curve, values with ≥ estimated) | Activity on TRPV1 (in words) [3] | EC50 [2, 4] | Activity on TAS2R10 (in words) [2] | EC50 [2]
1 | CCCCCCCCCC(C)=O [Compound 9, 2-undecanone] | − | − | − |  |  |  |  |  | 
2 | C=CC(C)(C)c1cc2cc3c(cc2oc1=O)OC(C(C)(C)OC(C)=O)C3 (centres unmarked) [Compound 2, rutamarin] | + | − | + | activated | ≥ 26.7 µM | agonist |  |  | 
3 | COc1c2ccoc2c(OC)c2oc(=O)ccc12 [Compound 5, isopimpinellin] | − | ++ | − |  |  |  | 12 µM |  | 
4 | CCCCCCCC(C)=O [Compound 10, 2-nonanone] | − | − | − |  |  |  |  |  | 
5 | COc1cc2nc3occc3c(OC)c2cc1OC [Compound 7, kokusaginin] | − | − | − |  |  |  |  |  | 
6 | COc1ccc2c(OC)c3ccoc3nc2c1OC [Compound 8, skimmianine] | − | − | − |  |  |  |  |  | 
7 | COc1c2occc2cc2ccc(=O)oc12 [Compound 4, xanthotoxin] | − | + | − |  |  |  |  | responded | ≥ 20.6 µM
8 | C[C@@H]1O[C@@H](OC[C@H]2O[C@@H](Oc3c(-c4ccc(O)c(O)c4)oc4cc(O)cc(O)c4c3=O)[C@H](O)[C@@H](O)[C@@H]2O)[C@H](O)[C@H](O)[C@H]1O [Compound 1, rutin] | − | − | − |  |  |  |  |  | 
9 | COc1c2ccoc2cc2oc(=O)ccc12 [Compound 3, bergapten] | − | +++ | − |  |  |  | 2.8 µM | selective and strong agonist | 
